The assay has as its system P388 leukemia ip, CD2F1 mice, survival T/C. Nature of the assay: NCI In Vivo Anticancer Drug Screen. Data for tumor model P388 Leukemia (intraperitoneal) in CD2F1 (CDF1) mice. The note with it: endpoint: median survival time, higher = longer survival. The procedure, abridged: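 Mice carrying the transplanted tumor received test compound or vehicle. Survival was recorded in each group, and the value is the treated-group measurement divided by that of the vehicle-treated control group.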

Setting [1] is: dose: 100.0 mg/kg/injection, schedule: Q04DX003 (ip), vehicle: Klucel (hydroxypropylcellulose) (HPC).
Setting [2] is: dose: 200.0 mg/kg/injection, schedule: Q04DX003 (ip), vehicle: Klucel (hydroxypropylcellulose) (HPC).
[3] abbreviates: dose: 400.0 mg/kg/injection, schedule: Q04DX003 (ip), vehicle: Klucel (hydroxypropylcellulose) (HPC).
[4] abbreviates: dose: 50.0 mg/kg/injection, schedule: Q01DX005 (ip), vehicle: saline.
Where [5] appears, read: dose: 100.0 mg/kg/injection, schedule: Q01DX005 (ip), vehicle: saline.
The mark [6] stands for this setting: dose: 50.0 mg/kg/injection, schedule: Q01DX005 (ip), vehicle: saline with Tween-80.
Setting [7] is: dose: 100.0 mg/kg/injection, schedule: Q01DX005 (ip), vehicle: saline with Tween-80.
[8] abbreviates: dose: 200.0 mg/kg/injection, schedule: Q01DX005 (ip), vehicle: saline with Tween-80.
[9] abbreviates: dose: 60.0 mg/kg/injection, schedule: Q01DX005 (ip), vehicle: saline with Tween-80.
Setting [10] is: dose: 120.0 mg/kg/injection, schedule: Q01DX005 (ip), vehicle: saline with Tween-80.
The mark [11] stands for this setting: dose: 240.0 mg/kg/injection, schedule: Q01DX005 (ip), vehicle: saline with Tween-80.
Where [12] appears, read: dose: 50.0 mg/kg/injection, schedule: Q01DX005 (ip), vehicle: Klucel (hydroxypropylcellulose) (HPC).
Setting [13] is: dose: 100.0 mg/kg/injection, schedule: Q01DX009 (ip), vehicle: Klucel (hydroxypropylcellulose) (HPC).
Setting [14] is: dose: 200.0 mg/kg/injection, schedule: Q01DX009 (ip), vehicle: Klucel (hydroxypropylcellulose) (HPC).

Values joined by “and” are separate entries in the source; they are usually repeats but may differ in a detail not shown here. Equal entries are not always repeated. Toxic doses and inconclusive results are not listed.

As to `CC(C)(C)P(O)(=S)c1ccccc1` (configuration not stated) (tested in a mixture with another compound), the T/C under setting [1] was 102 % of control, the T/C under setting [2] is 102 % of control and the T/C under setting [3] was 100 % of control.

In the case of `CC(=O)c1c(O)c2cccc3c2n(c1=O)CCC3`, the T/C (dose: 60.0 mg/kg/injection, schedule: Q01DX005 (ip), vehicle: Klucel (hydroxypropylcellulose) (HPC)) was 96 % of control and the T/C (dose: 120.0 mg/kg/injection, schedule: Q01DX005 (ip), vehicle: Klucel (hydroxypropylcellulose) (HPC)) is 97 % of control.

On to `CC1(C)CC2CCCCN2CO1` (configuration not stated), for which the T/C was 112 % of control under setting [4] and 108 % of control under setting [5].

For the compound `COc1ccc(Cc2cc3c(cc2OCCOC(C)=O)OCO3)cc1`, the T/C reads like this: under setting [6], 110 % of control; under setting [7], 105 % of control; under setting [8], 103 % of control.

Regarding `CC(c1ccccc1)n1ccnc1CO` (configuration not stated), the T/C is, setting by setting: under setting [9], 103 % of control; under setting [10], 107 % of control; under setting [11], 110 % of control.

For the compound `CCOC(=O)C1C(=O)C(=O)OC1CC(C)C` (configuration not stated), the T/C runs as follows: (dose: 12.5 mg/kg/injection, schedule: Q01DX005 (ip), vehicle: Klucel (hydroxypropylcellulose) (HPC)) 109 % of control; (dose: 25.0 mg/kg/injection, schedule: Q01DX005 (ip), vehicle: Klucel (hydroxypropylcellulose) (HPC)) 103 % of control; under setting [12], 107 % of control and 113 % of control.

On to `C1=CN2CC(c3ccccc3)N=C2S1` (configuration not stated), for which the T/C was 99 % of control (dose: 12.5 mg/kg/injection, schedule: Q01DX009 (ip), vehicle: other) and 102 % of control (dose: 25.0 mg/kg/injection, schedule: Q01DX009 (ip), vehicle: other).

For the compound `COC(C)(C)c1ccccc1[S+]1OC(C)(C)c2ccccc21` (configuration not stated), the T/C (dose: 100.0 mg/kg/injection, schedule: Q04DX002 (ip), vehicle: suspension in saline) was 96 % of control; the T/C (dose: 200.0 mg/kg/injection, schedule: Q04DX002 (ip), vehicle: suspension in saline) was 100 % of control; the T/C (dose: 400.0 mg/kg/injection, schedule: Q04DX002 (ip), vehicle: suspension in saline) is 109 % of control.

With `COC1C(C)(C)C1(Br)Br` (configuration not stated), the T/C is, setting by setting: under setting [6], 100 % of control; under setting [7], 99 % of control; under setting [8], 98 % of control.

Regarding `O=C(CBr)N1c2ccccc2Sc2c1ccc1ccccc21`, the T/C (dose: 6.25 mg/kg/injection, schedule: Q01DX009 (ip), vehicle: Klucel (hydroxypropylcellulose) (HPC)) was 86 % of control; the T/C (dose: 12.5 mg/kg/injection, schedule: Q01DX009 (ip), vehicle: Klucel (hydroxypropylcellulose) (HPC)) is 111 % of control; the T/C (dose: 25.0 mg/kg/injection, schedule: Q01DX009 (ip), vehicle: Klucel (hydroxypropylcellulose) (HPC)) is 117 % of control; the T/C (dose: 50.0 mg/kg/injection, schedule: Q01DX009 (ip), vehicle: Klucel (hydroxypropylcellulose) (HPC)) is 117 % of control; the T/C (dose: 50.0 mg/kg/injection, schedule: Q04DX003 (ip), vehicle: Klucel (hydroxypropylcellulose) (HPC)) was 99 % of control and 114 % of control; the T/C under setting [13] is 120 % of control. The T/C is, setting by setting: under setting [1], 99 % of control and 113 % of control and 120 % of control; under setting [14], 120 % of control; under setting [2], 101 % of control and 120 % of control and 87 % of control; under setting [3], 106 % of control and 123 % of control.

For `CN(C)CCCOC1=Nc2ccccc2O/C1=C/c1ccccc1`, the T/C is, setting by setting: (dose: 12.5 mg/kg/injection, schedule: Q04DX003 (ip), vehicle: saline) 98 % of control; (dose: 25.0 mg/kg/injection, schedule: Q04DX003 (ip), vehicle: saline) 94 % of control; (dose: 50.0 mg/kg/injection, schedule: Q04DX003 (ip), vehicle: saline) 97 % of control; (dose: 100.0 mg/kg/injection, schedule: Q04DX003 (ip), vehicle: saline) 97 % of control.

As for `CC(=O)CSC1=CC(C)(C)CC1=O`, the T/C was 96 % of control under setting [12]; 99 % of control (dose: 100.0 mg/kg/injection, schedule: Q01DX005 (ip), vehicle: Klucel (hydroxypropylcellulose) (HPC)); 99 % of control (dose: 200.0 mg/kg/injection, schedule: Q01DX005 (ip), vehicle: Klucel (hydroxypropylcellulose) (HPC)).

As for `CCC1C(=O)C=C(c2ccccc2)CC1c1ccccc1` (configuration not stated), the T/C runs as follows: under setting [6], 111 % of control; under setting [7], 102 % of control; under setting [8], 93 % of control.

In the case of `O=S1(=O)c2ccccc2N(c2ccccc2)c2nnc(COc3ccccc3)n21`, the T/C is, setting by setting: under setting [6], 90 % of control; under setting [7], 88 % of control.

In the case of `CC(=O)NC(CS)C(=O)O` (configuration not stated), the T/C (dose: 50.0 mg/kg/injection, schedule: Q01DX009 (ip), vehicle: saline) is 111 % of control and 88 % of control; the T/C (dose: 100.0 mg/kg/injection, schedule: Q01DX009 (ip), vehicle: saline) is 103 % of control and 104 % of control and 111 % of control; the T/C (dose: 200.0 mg/kg/injection, schedule: Q01DX009 (ip), vehicle: saline) is 99 % of control (2×) and 109 % of control.

On to `Cc1c[n+]2ccccc2n1C`, for which the T/C is, setting by setting: (dose: 1.56 mg/kg/injection, schedule: Q01DX009 (ip), vehicle: saline) 98 % of control; (dose: 3.13 mg/kg/injection, schedule: Q01DX009 (ip), vehicle: saline) 95 % of control; (dose: 6.25 mg/kg/injection, schedule: Q01DX009 (ip), vehicle: saline) 89 % of control.

In the case of `CC(c1ccccc1)/[N+]([O-])=N\O` (configuration not stated), the T/C reads like this: (dose: 3.0 mg/kg/injection, schedule: Q01DX005 (ip), vehicle: Klucel + Tween-80) 100 % of control; (dose: 6.0 mg/kg/injection, schedule: Q01DX005 (ip), vehicle: Klucel + Tween-80) 90 % of control; (dose: 12.0 mg/kg/injection, schedule: Q01DX005 (ip), vehicle: Klucel + Tween-80) 97 % of control; (dose: 24.0 mg/kg/injection, schedule: Q01DX005 (ip), vehicle: Klucel + Tween-80) 98 % of control.

On to `CNC(=O)Nc1cccc(C2(C)OCCS2)c1` (configuration not stated), for which the T/C under setting [9] was 100 % of control, the T/C under setting [10] is 94 % of control and the T/C under setting [11] was 99 % of control.

For `CCCN(CCC)C(C)C(O)c1cc2c(c3ccccc13)CCCC2` (configuration not stated), the T/C by setting is: under setting [13], 109 % of control; under setting [14], 93 % of control.

For the compound `CCCCCCCCCCCCCCCCCC(=O)NC(CC(=O)OCCCCCC)c1ccc(N(CCCl)CCCl)cc1` (configuration not stated), the T/C was 163 % of control (dose: 4.3 mg/kg/injection, schedule: Q01DX009 (ip), vehicle: saline); 186 % of control (dose: 8.6 mg/kg/injection, schedule: Q01DX009 (ip), vehicle: saline); 150 % of control (dose: 8.6 mg/kg/injection, schedule: Q03HX008 (ip), vehicle: saline); 213 % of control (dose: 17.2 mg/kg/injection, schedule: Q01DX009 (ip), vehicle: saline); 165 % of control (dose: 17.2 mg/kg/injection, schedule: Q03HX008 (ip), vehicle: saline); 200 % of control (dose: 34.4 mg/kg/injection, schedule: Q03HX008 (ip), vehicle: saline). Also, the T/C runs as follows: (dose: 34.5 mg/kg/injection, schedule: Q03HX008 (ip), vehicle: saline) 250 % of control; (dose: 68.8 mg/kg/injection, schedule: Q03HX008 (ip), vehicle: saline) 315 % of control; (dose: 138.0 mg/kg/injection, schedule: Q03HX008 (ip), vehicle: saline) 168 % of control; (dose: 275.0 mg/kg/injection, schedule: Q03HX008 (ip), vehicle: saline) 163 % of control.

Regarding `Cc1nc2[nH]ncc2c(=O)n1N`, the T/C is 97 % of control under setting [4]; 108 % of control under setting [5]; 101 % of control (dose: 200.0 mg/kg/injection, schedule: Q01DX005 (ip), vehicle: saline).

With `O=C(O)C1(Cc2ccc(O)c(O)c2)NCCS1` (configuration not stated), the T/C by setting is: (dose: 100.0 mg/kg/injection, schedule: Q01DX001 (ip), vehicle: Klucel (hydroxypropylcellulose) (HPC)) 104 % of control; (dose: 200.0 mg/kg/injection, schedule: Q01DX001 (ip), vehicle: Klucel (hydroxypropylcellulose) (HPC)) 100 % of control.

In the case of `O=C(N/C(=C/c1ccccc1)C(=O)N1CCN(C(=O)/C(=C\c2ccccc2)NC(=O)c2ccccc2)CC1)c1ccccc1`, the T/C was 93 % of control under setting [6], 92 % of control under setting [7] and 93 % of control under setting [8].

For `COC(=O)CCC(=O)Nc1c(C)cccc1C(C)C`, the T/C runs as follows: under setting [9], 105 % of control; under setting [10], 99 % of control; under setting [11], 99 % of control.

The values are drawn from PubChem BioAssay AID330 (DTP/NCI, 2004).
